Reference: patent US12371428B2 (Exelixis, Inc., priority 2019, dated 2025)

Key:
[1] = target: Mer (phospho-Mer, MERTK-transfected 293A cells) (Homo sapiens (Human), UniProt Q12866); test: Mer autophosphorylation ELISA in transient transfected 293A cells (Example H); type: cell-based; settings: cellular activity; Mer autophosphorylation ELISA in transient transfected 293A cells
Method in brief: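 Human MERTK transiently transfected into 293A cells; compounds as 8-point dose curve in serum-free medium (0.3% DMSO final), 1 h. Lysates assayed by phospho-Mer sandwich ELISA against phospho-Mer standard; DMSO = 100%, reference inhibitor = 0% activity; IC50 from 4-parameter logistic fit.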

[2] = target: AXL (phospho-AXL, Gas6-stimulated A-172 glioblastoma cells) (Homo sapiens (Human), UniProt P30530); test: AXL autophosphorylation ELISA in A-172 cells (Example E); type: cell-based; settings: cellular activity; AXL autophosphorylation ELISA in A-172 cells; read-out: Axl IC50
Sequence of AXL (phospho-AXL, Gas6-stimulated A-172 glioblastoma cells) (P30530 26-894): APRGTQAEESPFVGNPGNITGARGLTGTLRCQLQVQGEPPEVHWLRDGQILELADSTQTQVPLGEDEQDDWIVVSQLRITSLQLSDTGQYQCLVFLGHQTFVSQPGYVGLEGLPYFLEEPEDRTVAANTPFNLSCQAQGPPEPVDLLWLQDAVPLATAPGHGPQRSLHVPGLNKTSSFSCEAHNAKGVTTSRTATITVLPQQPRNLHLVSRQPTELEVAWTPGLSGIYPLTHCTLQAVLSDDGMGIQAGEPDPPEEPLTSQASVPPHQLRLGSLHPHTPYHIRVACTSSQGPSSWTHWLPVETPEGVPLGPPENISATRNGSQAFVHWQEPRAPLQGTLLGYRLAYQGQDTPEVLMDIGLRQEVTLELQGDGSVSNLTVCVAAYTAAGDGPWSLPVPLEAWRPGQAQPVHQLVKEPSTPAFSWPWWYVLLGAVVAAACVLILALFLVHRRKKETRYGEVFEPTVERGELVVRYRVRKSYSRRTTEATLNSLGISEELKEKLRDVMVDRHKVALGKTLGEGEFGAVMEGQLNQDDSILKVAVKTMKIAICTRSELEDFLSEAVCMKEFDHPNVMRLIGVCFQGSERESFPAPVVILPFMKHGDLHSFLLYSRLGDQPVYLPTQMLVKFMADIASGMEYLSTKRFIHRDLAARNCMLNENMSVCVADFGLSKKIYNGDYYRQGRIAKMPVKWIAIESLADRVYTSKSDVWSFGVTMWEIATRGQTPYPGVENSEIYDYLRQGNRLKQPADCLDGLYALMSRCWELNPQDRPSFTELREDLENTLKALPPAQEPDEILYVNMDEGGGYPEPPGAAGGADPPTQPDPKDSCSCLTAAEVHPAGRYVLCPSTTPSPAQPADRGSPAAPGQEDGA
Method in brief: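 Phospho-AXL in lysates was quantified by ELISA, normalised to DMSO (100%) and reference inhibitor (0%) controls. IC50 by 4-parameter logistic fit.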

[3] = target: Human KDR (residues 790-1356) (Homo sapiens (Human), UniProt P35968); test: Human KDR kinase assay, HTRF KinEase (Example B-2); type: biochemical; settings: protocol of Example B-2 (other compounds)
Sequence of Human KDR (residues 790-1356) (P35968 790-1356): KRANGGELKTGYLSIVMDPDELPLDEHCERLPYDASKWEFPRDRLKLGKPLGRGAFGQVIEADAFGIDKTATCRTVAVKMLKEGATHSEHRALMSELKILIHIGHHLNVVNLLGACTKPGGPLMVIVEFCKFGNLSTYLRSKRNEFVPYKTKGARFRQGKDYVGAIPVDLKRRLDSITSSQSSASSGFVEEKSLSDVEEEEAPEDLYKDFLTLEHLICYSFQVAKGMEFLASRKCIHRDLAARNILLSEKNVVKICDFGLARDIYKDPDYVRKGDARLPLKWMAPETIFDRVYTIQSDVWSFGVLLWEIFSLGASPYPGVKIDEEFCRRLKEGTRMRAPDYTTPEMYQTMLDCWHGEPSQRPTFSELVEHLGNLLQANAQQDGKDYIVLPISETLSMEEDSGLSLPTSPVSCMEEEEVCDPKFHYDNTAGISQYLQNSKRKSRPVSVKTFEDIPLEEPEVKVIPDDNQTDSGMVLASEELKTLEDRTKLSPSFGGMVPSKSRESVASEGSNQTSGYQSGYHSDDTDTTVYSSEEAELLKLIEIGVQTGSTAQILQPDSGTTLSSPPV
Method in brief: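 Human KDR residues 790-1356 (0.1 ng/well) in buffer with 5 mM MgCl2, 1 mM MnCl2, 1 mM DTT, biotinylated peptide substrate, ATP at Km (4.0 μM), 3% DMSO, 10 compound concentrations; 40 min, room temperature. EDTA stop, streptavidin-XL665/Eu-TK antibody HTRF read 665/620 nm; 4-parameter IC50.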

Sequence of Mer (phospho-Mer, MERTK-transfected 293A cells) (Q12866 21-999): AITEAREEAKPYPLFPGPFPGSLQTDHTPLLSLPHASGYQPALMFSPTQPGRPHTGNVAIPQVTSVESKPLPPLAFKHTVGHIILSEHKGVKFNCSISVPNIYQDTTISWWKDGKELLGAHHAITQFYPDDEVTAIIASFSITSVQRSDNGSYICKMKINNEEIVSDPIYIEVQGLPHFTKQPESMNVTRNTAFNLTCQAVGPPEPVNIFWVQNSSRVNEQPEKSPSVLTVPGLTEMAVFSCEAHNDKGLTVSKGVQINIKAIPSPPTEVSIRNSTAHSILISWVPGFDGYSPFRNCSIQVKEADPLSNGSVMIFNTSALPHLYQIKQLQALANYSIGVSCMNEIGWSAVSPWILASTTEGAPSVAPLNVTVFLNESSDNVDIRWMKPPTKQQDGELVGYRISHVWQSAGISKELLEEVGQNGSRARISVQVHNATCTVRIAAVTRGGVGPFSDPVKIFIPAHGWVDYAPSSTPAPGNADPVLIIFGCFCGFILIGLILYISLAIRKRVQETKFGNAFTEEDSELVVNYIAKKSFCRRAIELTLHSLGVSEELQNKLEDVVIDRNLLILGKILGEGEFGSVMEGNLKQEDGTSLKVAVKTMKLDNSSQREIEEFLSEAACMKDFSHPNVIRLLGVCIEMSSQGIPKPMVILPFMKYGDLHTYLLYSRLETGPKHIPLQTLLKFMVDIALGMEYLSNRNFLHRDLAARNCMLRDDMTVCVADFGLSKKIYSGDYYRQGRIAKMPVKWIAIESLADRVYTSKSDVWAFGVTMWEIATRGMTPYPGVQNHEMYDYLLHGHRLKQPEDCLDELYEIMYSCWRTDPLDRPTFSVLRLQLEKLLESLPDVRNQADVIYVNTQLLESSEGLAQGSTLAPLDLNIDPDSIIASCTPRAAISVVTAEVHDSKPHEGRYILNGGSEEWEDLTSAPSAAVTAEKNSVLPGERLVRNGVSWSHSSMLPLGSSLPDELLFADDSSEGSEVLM

Row | SMILES | IC50 [1] | IC50 [2] | IC50 [3]
1 | COc1cc2nccc(Oc3ncc(NC(=O)c4cn(C5CC5)cc(-c5ccc(F)cc5)c4=O)cc3F)c2cc1OC [Compound 399, 1-cyclopropyl-N-[6-(6,7-dimethoxyquinolin-4-yl)oxy-5-fluoropyridin-3-yl]-5-(4-fluorophenyl)-4-oxopyridine-3-carboxamide] | < 100 nM | < 100 nM | > 300 nM
2 | COc1cnc2c(Oc3ccc(NC(=O)c4cccn(-c5ccc(F)cc5)c4=O)cc3F)ccnc2c1 [Compound 291, N-[3-Fluoro-4-[(7-methoxy-1,5-naphthyridin-4-yl)oxy]phenyl]-1-(4-fluorophenyl)-2-oxopyridine-3-carboxamide] | < 100 nM | – | > 300 nM
3 | COc1ccc2nccc(Oc3ccc(NC(=O)c4c(C)nc(C)c(-c5ccc(F)cc5)c4O)cc3F)c2c1 [Compound 345, N-[3-fluoro-4-(6-methoxyquinolin-4-yl)oxyphenyl]-5-(4-fluorophenyl)-4-hydroxy-2,6-dimethylpyridine-3-carboxamide] | < 100 nM | – | 100 to 300 nM
4 | COc1ccc2nccc(Oc3ccc(NC(=O)c4c(C)ccn(-c5ccc(F)cc5)c4=O)cc3F)c2n1 [Compound 287, N-[3-Fluoro-4-[(6-methoxy-1,5-naphthyridin-4-yl)oxy]phenyl]-1-(4-fluorophenyl)-4-methyl-2-oxopyridine-3-carboxamide] | < 100 nM | – | < 100 nM
5 | COc1cnc2c(Oc3ccc(NC(=O)c4c(C)ccn(-c5ccc(F)cc5)c4=O)cc3)ccnc2c1 [Compound 300, 1-(4-Fluorophenyl)-N-[4-[(7-methoxy-1,5-naphthyridin-4-yl)oxy]phenyl]-4-methyl-2-oxopyridine-3-carboxamide] | < 100 nM | – | 100 to 300 nM
6 | COc1cc2nccc(Oc3ccc(NC(=O)c4c(C)cc(C)n(-c5ccc(F)cc5)c4=O)cc3)c2nc1OC [Compound 288, N-[4-[(6,7-Dimethoxy-1,5-naphthyridin-4-yl)oxy]phenyl]-1-(4-fluorophenyl)-4,6-dimethyl-2-oxopyridine-3-carboxamide] | < 100 nM | – | < 100 nM
7 | COc1ccc2nccc(Oc3ccc(NC(=O)c4ccc(C)n(-c5ccc(F)cc5)c4=O)cc3)c2n1 [Compound 343, 1-(4-fluorophenyl)-N-[4-[(6-methoxy-1,5-naphthyridin-4-yl)oxy]phenyl]-6-methyl-2-oxopyridine-3-carboxamide] | < 100 nM | – | 100 to 300 nM
8 | COc1ccc2nccc(Oc3ccc(NC(=O)c4cn(C)c(C)c(-c5ccc(F)cc5)c4=O)cc3)c2n1 [Compound 356, 5-(4-fluorophenyl)-N-[4-[(6-methoxy-1,5-naphthyridin-4-yl)oxy]phenyl]-1,6-dimethyl-4-oxopyridine-3-carboxamide] | < 100 nM | – | > 300 nM
